Assay results: patent US20210253598A1, “ARYL ANNULATED MACROCYCLIC INDOLE DERIVATIVES” (priority 2017, published 2021)
“And” between values parts separate entries of the source, which are not always exact repeats. Equal entries are not always repeated. Structures can show the parent of a compound that is named as a salt. Where two headings read alike, the source gives them in different places.

Experiments:
SUDHL5 [1] = assay: Induction of cytotoxicity in SUDHL5 cells, CellTiter-Glo (Assay 6); format: cell-based; conditions: SUDHL5, 5 hours incubation, median, read-out: Cytotox SUDHL5 [M] (median)
Summary of the method: (§1)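 Viability of treated lymphoma cells is measured by luminescence with CellTiter-Glo reagent, incubated 15 minutes at room temperature. Compound exposure lasts 5 hours at 37° C.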

SUDHL10 [2] = assay: Induction of cytotoxicity in SUDHL10 cells, CellTiter-Glo (Assay 6); format: cell-based; conditions: SUDHL10, 5 hours incubation, median, read-out: Cytotox SUDHL10 [M] (median)
Summary of the method: as §1

AMO-1 = assay: Anti-proliferative effect in AMO-1 cells, CellTiter-Glo (Assay 7); format: cell-based; conditions: several values per example
Protocol: (§2) Assessment of the Anti-Proliferative Effect of Compounds in Different Cell Lines
(§3) The impact of compounds on the proliferation of different cell lines was assessed using the CellTiter-Glo® Luminescent Cell Viability reagent from Promega (G7573).
(§4) In parallel, cells were plated in a reference (day 0) plate for time zero determination. Cells were incubated in a humidified incubator at 37° C. overnight.
(§5) Rim wells were excluded. The cells were incubated for 72 hours in a humidified incubator at 37° C. The day 0 plate was measured by adding 30 μL/well of CTG solution (CellTiter-Glo® Luminescent Cell Viability reagent, Promega G7573) to time zero wells in the reference plate followed by a 10 minutes incubation and luminescence reading at 0.1 ms. using the PHERAstar FS microplate reader (BMG Labtech).
(§6) After 72 hours incubation, the treated plates were measured in the same way as the day 0 plate mentioned above. The Bella DRC Master Sheet was used to calculate IC50s, with CI=day 0 values and C0=DMSO control values.

SUDHL5 [3] = assay: Anti-proliferative effect in SUDHL5 cells, CellTiter-Glo (Assay 7); format: cell-based
Summary of the method: (§7)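 Cells plated and incubated overnight at 37° C, then exposed to compound for 72 hours. Viability read as CellTiter-Glo luminescence, with a day 0 plate as time-zero reference. IC50 calculated with day 0 values and DMSO control values as references.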

A2780 = assay: Anti-proliferative effect in A2780 cells, CellTiter-Glo (Assay 7); format: cell-based
Summary of the method: as §7

MCL-1 = MCL-1 (Homo sapiens, UniProt Q07820, K194A/K197A/R201A); assay: Protein-protein interaction assay MCL-1/Noxa BH3 peptide, TR-FRET (MCL-1 assay, Assay 1); format: binding; conditions: MCL-1 Assay [M] (median), MBP-MCL-1 / Noxa BH3 peptide
Chain of MCL-1 (Q07820 173-321 K194A/K197A/R201A, looked up): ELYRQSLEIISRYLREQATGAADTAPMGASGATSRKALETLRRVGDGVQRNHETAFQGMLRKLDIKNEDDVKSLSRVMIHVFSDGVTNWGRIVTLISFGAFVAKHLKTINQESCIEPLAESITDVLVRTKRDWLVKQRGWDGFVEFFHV
Summary of the method: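 Human MBP-fused MCL-1 (aa 173-321; 1 nM final) was pre-incubated 10 min at 22 °C with compound in pH 7 Tris buffer containing NaCl, KF, Tween-20, DTT and BGG. Displacement of biotinylated Noxa BH3 peptide was read by TR-FRET (anti-MBP-Eu cryptate/streptavidin-XL665) after 1 h at 22 °C plus overnight at 4 °C. IC50 came from four-parameter fits against DMSO controls.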

SUDHL5 [4] = assay: Induction of caspase-3/7 activity in SUDHL5 cells (Assay 4); format: cell-based
Summary of the method: (§8)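 DLBCL lines SUDHL5 and SUDHL10 were treated with compound for 3 h at 37 °C. Caspase-3/7 activity was then read by Caspase-Glo 3/7 luminescence after 1 h at 37 °C. Medium-only background was subtracted and values were normalized to the mean of DMSO-treated cells.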

SUDHL10 [5] = assay: Induction of caspase-3/7 activity in SUDHL10 cells (Assay 4); format: cell-based
Summary of the method: as §8

MV-4-11 = assay: Anti-proliferative effect in MV-4-11 cells, CellTiter-Glo (Assay 7); format: cell-based; conditions: several values per example
Protocol: as §2, §3, §4, §5, §6

[6] = Homo sapiens, AMO1, 72 h, AMO-1, 72 hours incubation, CellTiter-Glo, read-out: Antiproli AMO-1
[7] = Homo sapiens, SU-DHL-5, 72 h, SUDHL5, 72 hours incubation, CellTiter-Glo, median, read-out: Antiproli SUDHL5 [M] (median)
[8] = Homo sapiens, SU-DHL-5, 3 h, SUDHL5, 3 hours treatment, Caspase-Glo 3/7, median, read-out: Caspase SUDHL5 [M] (median)
[9] = Homo sapiens, SU-DHL10, 3 h, SUDHL10, 3 hours treatment, Caspase-Glo 3/7, median, read-out: Caspase SUDHL10 [M] (median)
[10] = Homo sapiens, MV4-11, 72 h, MV-4-11, 72 hours incubation, CellTiter-Glo, read-out: Antiproli MV-4-11
[11] = read-out: Antiproli AMO-1, AMO-1, 72 hours incubation, CellTiter-Glo
[12] = read-out: Antiproli SUDHL5 [M] (median), SUDHL5, 72 hours incubation, CellTiter-Glo
[13] = read-out: Caspase SUDHL5 [M] (median), SUDHL5, 3 hours treatment, Caspase-Glo 3/7
[14] = read-out: Caspase SUDHL10 [M] (median), SUDHL10, 3 hours treatment, Caspase-Glo 3/7
[15] = read-out: Antiproli MV-4-11, MV-4-11, 72 hours incubation, CellTiter-Glo

Row | SMILES | IC50 (SUDHL5 [1]; Homo sapiens, SU-DHL-5, 5 h) [M] | IC50 (SUDHL10 [2]; Homo sapiens, SU-DHL10, 5 h) [M] | IC50 (AMO-1; [6]) [M] | IC50 (SUDHL5 [3]; [7]) [M] | IC50 (MCL-1) [M] | EC50 (SUDHL5 [4]; [8]) [M] | EC50 (SUDHL10 [5]; [9]) [M] | IC50 (MV-4-11; [10]) [M] | IC50 (SUDHL5 [1]) [M] | IC50 (SUDHL10 [2]) [M] | IC50 (AMO-1; [11]) | IC50 (SUDHL5 [3]; [12]) [M] | EC50 (SUDHL5 [4]; [13]) [M] | EC50 (SUDHL10 [5]; [14]) [M] | also measured
1 | Cc1c2c(nn1C)COCc1ccccc1Cn1c(C(=O)O)c(CCCOc3cccc4cc(F)ccc34)c3ccc(F)c-2c31 (racemic) [Example 64, (rac)-15-Fluoro-1-(3-((6-fluoronaphthalen-1-yl)oxy)propyl)-13,14-dimethyl-4,9,11,13-tetrahydrobenzo[3,4]pyrazolo[4′,3′:9,10][1,6]oxaazacycloundecino[8,7,6-hi]indole-2-carboxylic Acid] | 2.2e-06 | 3.2e-06 | 7.46e-06 | 1.5e-06 | 1.5e-09 | 1.7e-06 | 6e-06 |  |  |  |  |  |  |  | IC50 (A2780; Homo sapiens, A2780, 72 h, A2780, 72 hours incubation, CellTiter-Glo; several values per example; read-out: Antiproli A2780): 17.1 µM
2 | Cc1nn(C)c2c1-c1c(F)ccc3c(CCCOc4cccc5c4CCCC5)c(C(=O)O)n(c13)Cc1ccccc1COC2 (racemic) [Example 83, (rac)-15-Fluoro-12,14-dimethyl-1-(3-((5,6,7,8-tetrahydronaphthalen-1-yl)oxy)propyl)-4,9,11,12-tetrahydrobenzo[3,4]pyrazolo[4′,3′:9,10][1]oxa[6]azacycloundecino[8,7,6-hi]indole-2-carboxylic Acid] | 3.4e-06 | 5.5e-06 | 1.61e-05 | 4.9e-06 | 1e-08 | 4.6e-06 | 1.2e-05 | 1.18e-05 |  |  |  |  |  |  | 
3 | Cc1cc(OCCCc2c(C(=O)O)n3c4c(c(F)ccc24)-c2c(C)nn(C)c2COCc2ccccc2C3)cc(C)c1Cl (racemic) [Example 85, (rac)-1-(3-(4-chloro-3,5-dimethylphenoxy)propyl)-15-fluoro-12,14-dimethyl-4,9,11,12-tetrahydrobenzo[3,4]pyrazolo[4′,3′:9,10][1]oxa[6]azacycloundecino[8,7,6-hi]indole-2-carboxylic Acid] | 3.3e-06 | 6.5e-06 | 2.37e-05 | 6.9e-06 | 1.2e-08 | 3.7e-06 | 2e-05 | 1.7e-05 |  |  |  |  |  |  | 
4 | CCc1nn(C)c2c1-c1c(F)ccc3c(CCCOc4cc(C)c(Cl)c(C)c4)c(C(=O)O)n(c13)Cc1ccccc1COC2 (racemic) [Example 86, (rac)-1-(3-(4-Chloro-3,5-dimethylphenoxy)propyl)-14-ethyl-15-fluoro-12-methyl-4,9,11,12-tetrahydrobenzo[3,4]pyrazolo[4′,3′:9,10][1,6]oxaazacycloundecino[8,7,6-hi]indole-2-carboxylic Acid] | 2.9e-06 | 5.2e-06 | 1.69e-05 | 4.3e-06 | 1.1e-08 | 2.7e-06 | 6.9e-06 | 1.42e-05 |  |  |  |  |  |  | 
5 | CCc1nn(C)c2c1-c1c(F)ccc3c(CCCOc4ccc(F)c5ccccc45)c(C(=O)O)n(c13)Cc1ccccc1COC2 (racemic) [Example 89, (rac)-14-Ethyl-15-fluoro-1-(3-((4-fluoronaphthalen-1-yl)oxy)propyl)-12-methyl-4,9,11,12-tetrahydrobenzo[3,4]pyrazolo[4′,3′:9,10][1,6]oxaazacycloundecino[8,7,6-hi]indole-2-carboxylic Acid] | 2.6e-06 | 7.5e-06 | 1.28e-05 | 4e-06 | 1.2e-08 | 2.9e-06 | 8.3e-06 | 8.44e-06 |  |  |  |  |  |  | 
6 | CCc1nn(C)c2c1-c1c(Cl)ccc3c(CCCOc4cccc5cc(F)ccc45)c(C(=O)O)n(c13)Cc1ccccc1COC2 (single isomer, unassigned; enantiomer 2) [Example 59, (−)-3-Chloro-4-ethyl-17-{3-[(6-fluoronaphthalen-1-yl)oxy]propyl}-6-methyl-6,7,9,14-tetrahydro-indolo[7,1-fg]pyrazolo[3,4-d][2,8]benzoxazacycloundecine-16-carboxylic acid-N-ethylethanamine Salt (Enantiomer 2)] | 2.2e-06 | 8.2e-06 |  |  | 1e-08 |  |  |  |  |  |  |  |  |  | IC50 (AMO-1; Homo sapiens, AMO1, 72 h, read-out: Antiproli AMO-1 [M], AMO-1, 72 hours incubation, CellTiter-Glo): 7.14e-06 M; IC50 (SUDHL5 [3]; Homo sapiens, SU-DHL-5, 72 h, read-out: Antiproli SUDHL5 [M] (median), SUDHL5, 72 hours incubation, CellTiter-Glo): 2.6e-06 M; EC50 (SUDHL5 [4]; Homo sapiens, SU-DHL-5, 3 h, read-out: Caspase SUDHL5 [M] (median), SUDHL5, 3 hours treatment, Caspase-Glo 3/7): 1.9e-06 M; IC50 (MV-4-11; Homo sapiens, MV4-11, 72 h, read-out: Antiproli MV-4-11 [M], MV-4-11, 72 hours incubation, CellTiter-Glo): 4.5e-06 M; EC50 (SUDHL10 [5]; Homo sapiens, SU-DHL10, 3 h, read-out: Caspase SUDHL10 [M] (median), SUDHL10, 3 hours treatment, Caspase-Glo 3/7): 7.9e-06 M
7 | Cc1c2c(nn1C)COCc1ccccc1Cn1c(C(=O)O)c(CCCOc3cccc4cc(F)ccc34)c3ccc(F)c-2c31 (single isomer, unassigned; enantiomer 2) [Example 66, (+)-3-Fluoro-17-{3-[(6-fluoronaphthalen-1-yl)oxy]propyl}-4,5-dimethyl-5,7,9,14-tetrahydroindolo[7,1-fg]pyrazolo[3,4-d][2,8]benzoxazacycloundecine-16-carboxylic acid-N-ethylethanamine Salt (Enantiomer 2)] |  |  |  |  | 6.2e-09 |  |  |  | 4.1e-06 | 8.6e-06 | 7.13e-06 M and 7.07e-06 M | 3.6e-06 | 3.3e-06 | 1.2e-05 | IC50 (A2780; read-out: Antiproli A2780; A2780, 72 hours incubation, CellTiter-Glo; several values per example): > 33 µM
8 | Cc1c2c(nn1C)COCc1ccccc1Cn1c(C(=O)O)c(CCCOc3cccc4ccccc34)c3ccc(F)c-2c31 (single isomer, unassigned; enantiomer 2) [Example 69, (+)-3-Fluoro-4,5-dimethyl-17-{3-[(naphthalen-1-yl)oxy]propyl}-5,7,9,14-tetrahydroindolo[7,1-fg]pyrazolo[3,4-d][2,8]benzoxazacycloundecine-16-carboxylic acid-N-ethylethanamine Salt (Enantiomer 2)] |  |  |  |  | 2.1e-08 |  |  |  | 1.4e-05 | > 3.3e-05 | 2.6e-05 M | 1.2e-05 | 1.3e-05 | > 3.3e-05 | IC50 (MV-4-11; [15]): 1.51e-05 M
9 | CCc1c2c(nn1C)COCc1ccccc1Cn1c(C(=O)O)c(CCCOc3cccc4cc(F)ccc34)c3ccc(F)c-2c31 (single isomer, unassigned; enantiomer 2) [Example 75, (+)-4-Ethyl-3-fluoro-17-{3-[(6-fluoronaphthalen-1-yl)oxy]propyl}-5-methyl-5,7,9,14-tetrahydro-indolo[7,1-fg]pyrazolo[3,4-d][2,8]benzoxazacycloundecine-16-carboxylic acid-N-ethylethanamine Salt (Enantiomer 2)] |  |  |  |  | 3e-09 |  |  |  | 5.2e-06 | 1e-05 | 1.25e-05 M | 5.8e-06 | 4.4e-06 | 1.5e-05 | IC50 (MV-4-11; [15]): 1.64e-05 M
10 | Cc1c2c(nn1C)COCc1cccnc1Cn1c(C(=O)O)c(CCCOc3cccc4ccccc34)c3cccc-2c31 [Example 05] |  |  |  |  |  |  |  |  |  |  |  |  |  |  | IC50 (AMO-1; AMO-1, 72 hours incubation, CellTiter-Glo, read-out: Antiproli AMO-1): 8.78e-06 M; IC50 (A2780; A2780, 72 hours incubation, CellTiter-Glo; several values per example; read-out: Antiproli A2780): 6.65 µM; IC50 (MV-4-11; MV-4-11, 72 hours incubation, CellTiter-Glo, read-out: Antiproli MV-4-11): 5.48e-06 M
